Test results reported in US11311013B2, “Benzimidazole compound or salt thereof, agricultural and horticultural insecticidal and acaricidal agent containing said compound, and method for using same” (NIHON NOHYAKU CO., LTD., priority 2018, dated 2022).

system: Diamondback moth (Plutella xylostella); test: Insecticidal test on diamondback moth, dip of Chinese cabbage seedlings with laid eggs; assay type: in vivo; conditions: 144 h, dip about 30 seconds, 25° C., 6 days after dip treatment, hatched larvae counted, read-out: insecticidal efficacy (corrected mortality rate) activity level
Text: Insecticidal Test on Diamondback Moth (Plutella xylostella)
Adults of diamondback moth were released onto Chinese cabbage seedlings and allowed to lay eggs thereon. At 2 days after the release of the adults, the Chinese cabbage seedlings with laid eggs were dipped for about 30 seconds in agrochemical dispersions diluted to 500 ppm, each of which contained a different benzimidazole compound represented by the general formula (1) of the present invention or salt thereof as an active ingredient. After air-dried, the seedlings were kept in a thermostatic chamber at 25° C. At 6 days after the dip treatment, the number of hatched larvae per plot was counted, the corrected mortality rate was calculated according to the formula shown below, and the insecticidal efficacy was evaluated according to the criteria of Test Example 2. This test was conducted in triplicate using 10 adults of diamondback moth per plot. Corrected mortality rate (%)=(Number of hatched larvae in a non-treatment plot−Number of hatched larvae in a treatment plot)/(Number of hatched larvae in a non-treatment plot)×100 [Expression 3]

| SMILES | mortality at 500 ppm |
| --- | --- |
| CCS(=O)(=O)n1c(-c2ccc(OCC(F)(F)C(F)(F)F)nc2)nc2ccccc21 [Compound 1-2, 2-(2-(2,2,3,3,3-pentafluoropropyloxy)pyridin-5-yl)-1-ethanesulfonyl benzimidazole] | 100% |

system: Two-spotted spider mite (Tetranychus urticae); test: Acaricidal action on two-spotted spider mite, kidney bean leaf disk spray; assay type: in vivo; conditions: 500 ppm, 25° C., two days after treatment
Method: Acaricidal Action on Two-Spotted Spider Mite (Tetranychus urticae)
Leaf disk having a diameter of 2 cm was prepared by leaves of kidney bean, and the leaf disk was placed on the wetted filter paper. Adult hens of two-spotted spider mite were inoculated on the wetted filter paper, and then 50 ml of an agrochemical dispersion, prepared by diluting a formulation containing the benzimidazole compound represented by the general formula (1) of the present invention or salt thereof as an active ingredient to adjust each of the concentrations to 500 ppm, was sprayed on turntable uniformly. After the spraying, it was allowed to stand in a thermostatic chamber at 25° C. Two days after the treatment of an agrochemical dispersion, the dead mites were counted, the corrected mortality rate was calculated according to the formula shown below, and the acaricidal efficacy was evaluated according to the criteria of Test Example 2. This test was conducted in duplicate using 10 adult hens of two-spotted spider per plot. Corrected mortality (%)=(Number of dead mites in a non-treatment plot−Number of dead mites in a treatment plot)/(Number of dead mites in a non-treatment plot)×100 [Expression 4]

| SMILES | acaricidal efficacy (corrected mortality rate) activity level |
| --- | --- |
| CCS(=O)(=O)n1c(-c2ccc(OCC(F)(F)F)nc2)nc2ccccc21 [Compound 1-1] | D or higher |
| CCS(=O)(=O)n1c(-c2ccc(OCC(F)(F)C(F)(F)F)nc2)nc2ccccc21 [Compound 1-2, 2-(2-(2,2,3,3,3-pentafluoropropyloxy)pyridin-5-yl)-1-ethanesulfonyl benzimidazole] | D or higher |
| CS(=O)(=O)n1c(-c2ccc(OCC(F)(F)C(F)(F)F)nc2)nc2ccccc21 [Compound 1-3] | D or higher |
| CCCS(=O)(=O)n1c(-c2ccc(OCC(F)(F)C(F)(F)F)nc2)nc2ccccc21 [Compound 1-4] | D or higher |
| CCCCS(=O)(=O)n1c(-c2ccc(OCC(F)(F)C(F)(F)F)nc2)nc2ccccc21 [Compound 1-5] | D or higher |
| CCS(=O)(=O)n1c(-c2ccc(OCC(F)(F)C(F)(F)F)nc2)nc2ccc(Br)cc21 [Compound 1-10] | D or higher |
| CCS(=O)(=O)n1c(-c2ccc(OCC(F)(F)C(F)(F)F)nc2)nc2cc(Cl)ccc21 [Compound 1-12] | D or higher |
| CCS(=O)(=O)n1c(-c2ccc(OCC(F)(F)C(F)(F)F)nc2)nc2ccc(Cl)cc21 [Compound 1-13] | D or higher |
| CCS(=O)(=O)n1c(-c2ccc(OCC(F)(F)C(F)(F)F)nc2)nc2cc(Cl)c(Cl)cc21 [Compound 1-14] | D or higher |
| CCS(=O)(=O)n1c(-c2ccc(OCC(F)(F)C(F)(F)F)nc2)nc2cc(Br)c(Br)cc21 [Compound 1-15] | D or higher |
| CCS(=O)(=O)n1c(-c2ccc(OCC(F)(F)C(F)(F)F)nc2)nc2cc(C)c(C)cc21 [Compound 1-17] | D or higher |
| CCS(=O)(=O)n1c(-c2cnc(OCC(F)(F)C(F)(F)F)c(Cl)c2)nc2ccccc21 [Compound 1-18] | D or higher |
| CCS(=O)(=O)n1c(-c2ccc(OCC(F)(F)C(F)F)nc2)nc2ccccc21 [Compound 1-19] | D or higher |
| CCS(=O)(=O)n1c(-c2ccc(OCC(F)(F)C(F)(F)C(F)(F)F)nc2)nc2ccccc21 [Compound 1-20] | D or higher |
| CCS(=O)(=O)n1c(-c2ccc(OCC(F)(F)C(F)(F)C(F)(F)F)nc2)nc2ccc(Br)cc21 [Compound 1-22] | D or higher |
| CCS(=O)(=O)n1c(-c2ccc(OC(C(F)(F)F)C(F)(F)F)nc2)nc2ccccc21 [Compound 1-23] | D or higher |
| CCS(=O)(=O)n1c(-c2ccc(OCC(F)(F)C(F)C(F)(F)F)nc2)nc2ccccc21 (centres unmarked) [Compound 1-24] | D or higher |
| CCS(=O)(=O)n1c(-c2ccc(Oc3ccc(SC(F)(F)F)cc3)nc2)nc2ccccc21 [Compound 1-40] | D or higher |
| CCS(=O)(=O)n1c(-c2ccc(Oc3ccc([S+]([O-])C(F)(F)F)cc3)nc2)nc2ccccc21 (centres unmarked) [Compound 1-41] | D or higher |
| CCS(=O)(=O)n1c(-c2ccc(Oc3ccc(S(=O)(=O)C(F)(F)F)cc3)nc2)nc2ccccc21 [Compound 1-42] | D or higher |
| CCS(=O)(=O)n1c(-c2ccc(OCc3ccc(SC(F)(F)F)cc3)nc2)nc2ccccc21 [Compound 1-43] | D or higher |
| CCS(=O)(=O)n1c(-c2ccc(OCc3ccc([S+]([O-])C(F)(F)F)cc3)nc2)nc2ccccc21 (centres unmarked) [Compound 1-44] | D or higher |
| O=S(=O)(CCl)n1c(-c2ccc(OCC(F)(F)C(F)(F)F)nc2)nc2ccccc21 [Compound 1-45] | D or higher |
| CCS(=O)(=O)n1c(-c2ccc(Oc3ccc(OC(F)(F)F)cc3)nc2)nc2ccccc21 [Compound 1-46] | D or higher |
| CCCCOc1ccc(-c2nc3ccccc3n2S(=O)(=O)CC)cn1 [Compound 1-47] | D or higher |

| SMILES | acaricidal efficacy (corrected mortality rate) activity level |
| --- | --- |
| CCCCCOc1ccc(-c2nc3ccccc3n2S(=O)(=O)CC)cn1 [Compound 1-48] | D or higher |
| CCCCCCOc1ccc(-c2nc3ccccc3n2S(=O)(=O)CC)cn1 [Compound 1-49] | D or higher |
| CCS(=O)(=O)n1c(-c2ccc(OC3CCCC3)nc2)nc2ccccc21 [Compound 1-50] | D or higher |
| CCS(=O)(=O)n1c(-c2ccc(OC3CCCCCC3)nc2)nc2ccccc21 [Compound 1-51] | D or higher |
| CCS(=O)(=O)n1c(-c2cncc(OCC(F)(F)C(F)(F)F)c2)nc2ccccc21 [Compound 3-1] | D or higher |
| CCCOc1ccc(-c2nc3ccccc3n2S(=O)(=O)CC)cn1 [Compound 5-1] | D or higher |
| CCS(=O)(=O)n1c(-c2ccc(OC(C)C)nc2)nc2ccccc21 [Compound 5-2] | D or higher |
| CCS(=O)(=O)n1c(-c2ccc(OC3CCCCC3)nc2)nc2ccccc21 [Compound 5-3] | D or higher |
| CCS(=O)(=O)n1c(-c2ccc(OCCC(C)(C)C)nc2)nc2ccccc21 [Compound 5-4] | D or higher |
| CCS(=O)(=O)n1c(-c2ccc(OCCOC)nc2)nc2ccccc21 [Compound 5-5] | D or higher |
| CCS(=O)(=O)n1c(-c2ccc(OCCSC)nc2)nc2ccccc21 [Compound 5-6] | D or higher |
| CCS(=O)(=O)n1c(-c2ccc(Oc3ccc([Si](C)(C)C)cc3)nc2)nc2ccccc21 [Compound 5-8] | D or higher |
| CCS(=O)(=O)n1c(-c2cnc(OCC(F)(F)F)c(Cl)c2)nc2ccccc21 [Compound 5-9] | D or higher |
| CCS(=O)(=O)n1c(-c2cnc(OCC(F)(F)C(F)F)c(Cl)c2)nc2ccccc21 [Compound 5-10] | D or higher |
| CCS(=O)(=O)n1c(-c2ccc(OCCC(F)(F)C(F)(F)C(F)(F)C(F)(F)C(F)(F)C(F)(F)F)nc2)nc2ccccc21 [Compound 5-11] | D or higher |
| CCS(=O)(=O)n1c(-c2ccc(OCC(F)(F)C(F)(F)C(F)(F)C(F)(F)C(F)(F)C(F)F)nc2)nc2ccccc21 [Compound 5-12] | D or higher |
| CCCSc1ccc(-c2nc3ccccc3n2S(=O)(=O)CC)cn1 [Compound 5-14] | D or higher |
| CCCCSc1ccc(-c2nc3ccccc3n2S(=O)(=O)CC)cn1 [Compound 5-17] | D or higher |
| CCS(=O)(=O)n1c(-c2ccc(SC3CCCC3)nc2)nc2ccccc21 [Compound 5-18] | D or higher |
| CCS(=O)(=O)n1c(-c2ccc(SC3CCCCC3)nc2)nc2ccccc21 [Compound 5-19] | D or higher |
| CCS(=O)(=O)n1c(-c2ccc(SCC3CC3)nc2)nc2ccccc21 [Compound 5-20] | D or higher |
| CCS(=O)(=O)n1c(-c2ccc(SCc3ccccc3)nc2)nc2ccccc21 [Compound 5-21] | D or higher |
| CCCCN(CCCC)c1ccc(-c2nc3ccccc3n2S(=O)(=O)CC)cn1 [Compound 5-24] | D or higher |
| CCCCN(C)c1ccc(-c2nc3ccccc3n2S(=O)(=O)CC)cn1 [Compound 5-25] | D or higher |
